Usually solubility stands for the concentration that dissolves in the medium under given conditions. Low values mean a poorly soluble substance, high ones a readily soluble substance.

≈ marks a conversion by molar mass, not a printed value. Entries after “also recorded” stand apart in the source; their conditions may differ.

The text below walks through data of US9868736B2, “Deubiquitinase inhibitors and methods for use of the same” (THE REGENTS OF THE UNIVERSITY OF MICHIGAN, priority 2013, dated 2018).

The target of data set [1] is T1, catalytic domain of Usp9x (Usp9xCD) (Homo sapiens, UniProt Q93008).
T1 construct: DNA corresponding to amino acids 1553-1960 of human Usp9x; His6-Smt3 (SUMO) fusion tag, ULP1-cleavable (N, cleaved yes); made in house; host or cells: E. coli
T1 sequence (Q93008 1553-1960): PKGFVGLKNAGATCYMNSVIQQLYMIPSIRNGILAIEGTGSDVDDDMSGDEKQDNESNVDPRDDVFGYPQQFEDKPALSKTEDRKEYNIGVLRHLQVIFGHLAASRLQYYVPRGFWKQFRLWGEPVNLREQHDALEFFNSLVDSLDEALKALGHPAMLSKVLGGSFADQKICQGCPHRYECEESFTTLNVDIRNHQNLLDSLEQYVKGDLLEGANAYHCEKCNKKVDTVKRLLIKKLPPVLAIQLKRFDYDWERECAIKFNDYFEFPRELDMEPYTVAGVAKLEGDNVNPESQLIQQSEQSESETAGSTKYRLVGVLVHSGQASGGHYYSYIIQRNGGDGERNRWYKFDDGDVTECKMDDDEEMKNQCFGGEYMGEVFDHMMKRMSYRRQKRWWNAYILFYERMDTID
As to the kind of experiment: Usp9xCD Ub-AMC enzyme assay. Particulars: screen of 210 structures. The class given is biochemical. As for the experimental part: A series of chemical modifications were initiated to increase our structure activity relationship (SAR) analysis of inhibitors. […] The DNA was cloned into a ULP1-protease cleavable N-terminal His6-Smt3-fusion tag expression vector, derived from pET-28. Protein expression was induced at OD600 2.0, in TB media with Kanamycin overnight at 16° C. Cells were harvested and flash frozen before use. […] Protein was concentrated to roughly 20-40 mg/ml before aliquots were flash-frozen. All steps were performed in the presence of reducing agents, either BME, DTT, or TCEP.
Purified recombinant enzyme in buffer containing 2 mM DTT was buffer exchanged into 25 mM Tris-HCl, 50 mM NaCl and 1 mg/ml BSA using a spin column. […] IC50 values were estimated by integrating the slope of each reaction using GraphPad 6.
Two hundred and ten (210) novel chemical structures were screened for Usp9xCD inhibitory activity using this assay. […] Fluorescent scans were used to assess Usp9xCD inhibitory activity in this enzyme assay for all compounds of interest. Each assay was performed in duplicate and the linear region of each reaction curve was used to calculate IC50 values for Usp9xCD inhibition which are tabulated in Table 1.

For data set [2], the system named is Mcl-1, PARP. As to the kind of experiment: Mcl-1 level and PARP cleavage in treated tumor cells. The class given is cell-based.
Data set [3] can be described thus: aqueous solubility. The class given is physicochemical.
Data set [4] relates to A375 tumors. As to the kind of experiment: A375 melanoma tumor growth in NSG mice. The class given is in vivo. As for the experimental part: G9 suppresses Usp9x activity in A375 melanoma cells. The effect of G9 on the growth of A375 tumors in NSG mice was examined. Two million A375 cells in Matrigel: cell culture media (1:1) in 0.1 mL were injected subcutaneously in the dorsal region of 9 female NSG mice. After tumor growth to a measurable level (2 weeks post inoculation) animals were separated into 3 groups and mice received 0, 7.5 or 15 mg/kg G9 (prepared as described above) daily by IP injection for 8 days. Tumor volume (left) and animal weight (right) were measured every other day throughout the treatment interval and are reported in FIG. 6. […] Three animals per treatment group were evaluated in this study. Each data point represents the average+/−S.D. of measurements made in three mice. P-values were calculated using GraphPad Instat. P-values<0.05 are considered significant.
A375 tumors grown as subcutaneous implants in NSG mice were separated into three groups and received once daily ip injections with vehicle control (PEG300/DMSO) or G9 at doses of 7.5 or 15 mg/kg. Tumor growth, animal weight, behavior and mobility were monitored during treatment.

Data set [5] deals with CD34+ cells from normal donors and myeloma cell lines (MM1.S, H929). Put plainly: apoptosis by annexin V staining (flow cytometry). The class given is cell-based. To be noted: 24 hours. The method, then:
Cellular apoptosis was measured by detection of annexin V on the surface of cells using flow cytometry. Cells were treated with the indicated concentration of G9 for 24 hours before assessing annexin positivity as an indication of […] using duplicate assays derived from duplicate samples. CD34+ cells from two normal donors (left) or two myeloma cell lines (right) were treated with the indicated concentration of G9 for 24 hours before measuring cell survival by annexin V staining (assessed by flow cytometry). Each data point represents the average of 2 samples assayed in duplicate and presented as the average+/−S.D. for each G9 concentration.

The subject of data set [6] is murine norovirus. Put plainly: antiviral screen against murine norovirus in macrophages. The class given is cell-based. Particulars: RAW cells, Swiss Webster and Balb/c bone marrow derived macrophages, FIG. 8. The text has this:
G9 was screened in RAW cells, Swiss Webster bone marrow derived macrophages and Balb/c bone marrow derived macrophages, compared to vehicle (DMSO), prior compound WP1130 and compound VM030. […] VM030 has a structure of […]

Data set [7] deals with Sindbis virus, Tulane virus, LaCrosse virus, Norwalk virus replicon. As to the kind of experiment: antiviral screen against a variety of viruses. The class given is cell-based. To be noted: Vero (Sindbis), LLC-MK (Tulane), Be2-c (LaCrosse), Norwalk virus replicon-containing cells, FIG. 9. (In antiviral work, replicon cells carry a viral genome segment that copies itself.)
In data set [8] the target is Usp9x (Homo sapiens, UniProt Q93008). Put plainly: Usp9x activity, Mcl-1 and PARP in tumors extracted from treated mice. The class given is in vivo, NSG mice. Details: from tissue; host or cells: MM1.S xenograft tumour extracted from NSG mice. Particulars: 15 mg/kg, tumors extracted one hour after last injection. As for the experimental part: To analyze that potential, mice were euthanized one hour after their last injection and tumors were extracted, photographed and flash-frozen on dry ice. Tumor tissue was sheared in liquid nitrogen, ground to a powder with a mortar and pestle and proteins extracted to assess Usp9x activity in 20 μg of protein from each tumor specimen. Tumors extracted from control and 15 mg/kg G9 treated mice were assessed for Usp9x activity as described above. […] Also shown are the effects of treatment on Usp9x and Usp24 protein, the latter a DUB closely related to Usp9x. The effect of G9 on the Usp9x substrate Mcl-1, and on cleavage of caspase substrate PARP, are also shown.
Usp9x, sequence (Q93008 whole entry): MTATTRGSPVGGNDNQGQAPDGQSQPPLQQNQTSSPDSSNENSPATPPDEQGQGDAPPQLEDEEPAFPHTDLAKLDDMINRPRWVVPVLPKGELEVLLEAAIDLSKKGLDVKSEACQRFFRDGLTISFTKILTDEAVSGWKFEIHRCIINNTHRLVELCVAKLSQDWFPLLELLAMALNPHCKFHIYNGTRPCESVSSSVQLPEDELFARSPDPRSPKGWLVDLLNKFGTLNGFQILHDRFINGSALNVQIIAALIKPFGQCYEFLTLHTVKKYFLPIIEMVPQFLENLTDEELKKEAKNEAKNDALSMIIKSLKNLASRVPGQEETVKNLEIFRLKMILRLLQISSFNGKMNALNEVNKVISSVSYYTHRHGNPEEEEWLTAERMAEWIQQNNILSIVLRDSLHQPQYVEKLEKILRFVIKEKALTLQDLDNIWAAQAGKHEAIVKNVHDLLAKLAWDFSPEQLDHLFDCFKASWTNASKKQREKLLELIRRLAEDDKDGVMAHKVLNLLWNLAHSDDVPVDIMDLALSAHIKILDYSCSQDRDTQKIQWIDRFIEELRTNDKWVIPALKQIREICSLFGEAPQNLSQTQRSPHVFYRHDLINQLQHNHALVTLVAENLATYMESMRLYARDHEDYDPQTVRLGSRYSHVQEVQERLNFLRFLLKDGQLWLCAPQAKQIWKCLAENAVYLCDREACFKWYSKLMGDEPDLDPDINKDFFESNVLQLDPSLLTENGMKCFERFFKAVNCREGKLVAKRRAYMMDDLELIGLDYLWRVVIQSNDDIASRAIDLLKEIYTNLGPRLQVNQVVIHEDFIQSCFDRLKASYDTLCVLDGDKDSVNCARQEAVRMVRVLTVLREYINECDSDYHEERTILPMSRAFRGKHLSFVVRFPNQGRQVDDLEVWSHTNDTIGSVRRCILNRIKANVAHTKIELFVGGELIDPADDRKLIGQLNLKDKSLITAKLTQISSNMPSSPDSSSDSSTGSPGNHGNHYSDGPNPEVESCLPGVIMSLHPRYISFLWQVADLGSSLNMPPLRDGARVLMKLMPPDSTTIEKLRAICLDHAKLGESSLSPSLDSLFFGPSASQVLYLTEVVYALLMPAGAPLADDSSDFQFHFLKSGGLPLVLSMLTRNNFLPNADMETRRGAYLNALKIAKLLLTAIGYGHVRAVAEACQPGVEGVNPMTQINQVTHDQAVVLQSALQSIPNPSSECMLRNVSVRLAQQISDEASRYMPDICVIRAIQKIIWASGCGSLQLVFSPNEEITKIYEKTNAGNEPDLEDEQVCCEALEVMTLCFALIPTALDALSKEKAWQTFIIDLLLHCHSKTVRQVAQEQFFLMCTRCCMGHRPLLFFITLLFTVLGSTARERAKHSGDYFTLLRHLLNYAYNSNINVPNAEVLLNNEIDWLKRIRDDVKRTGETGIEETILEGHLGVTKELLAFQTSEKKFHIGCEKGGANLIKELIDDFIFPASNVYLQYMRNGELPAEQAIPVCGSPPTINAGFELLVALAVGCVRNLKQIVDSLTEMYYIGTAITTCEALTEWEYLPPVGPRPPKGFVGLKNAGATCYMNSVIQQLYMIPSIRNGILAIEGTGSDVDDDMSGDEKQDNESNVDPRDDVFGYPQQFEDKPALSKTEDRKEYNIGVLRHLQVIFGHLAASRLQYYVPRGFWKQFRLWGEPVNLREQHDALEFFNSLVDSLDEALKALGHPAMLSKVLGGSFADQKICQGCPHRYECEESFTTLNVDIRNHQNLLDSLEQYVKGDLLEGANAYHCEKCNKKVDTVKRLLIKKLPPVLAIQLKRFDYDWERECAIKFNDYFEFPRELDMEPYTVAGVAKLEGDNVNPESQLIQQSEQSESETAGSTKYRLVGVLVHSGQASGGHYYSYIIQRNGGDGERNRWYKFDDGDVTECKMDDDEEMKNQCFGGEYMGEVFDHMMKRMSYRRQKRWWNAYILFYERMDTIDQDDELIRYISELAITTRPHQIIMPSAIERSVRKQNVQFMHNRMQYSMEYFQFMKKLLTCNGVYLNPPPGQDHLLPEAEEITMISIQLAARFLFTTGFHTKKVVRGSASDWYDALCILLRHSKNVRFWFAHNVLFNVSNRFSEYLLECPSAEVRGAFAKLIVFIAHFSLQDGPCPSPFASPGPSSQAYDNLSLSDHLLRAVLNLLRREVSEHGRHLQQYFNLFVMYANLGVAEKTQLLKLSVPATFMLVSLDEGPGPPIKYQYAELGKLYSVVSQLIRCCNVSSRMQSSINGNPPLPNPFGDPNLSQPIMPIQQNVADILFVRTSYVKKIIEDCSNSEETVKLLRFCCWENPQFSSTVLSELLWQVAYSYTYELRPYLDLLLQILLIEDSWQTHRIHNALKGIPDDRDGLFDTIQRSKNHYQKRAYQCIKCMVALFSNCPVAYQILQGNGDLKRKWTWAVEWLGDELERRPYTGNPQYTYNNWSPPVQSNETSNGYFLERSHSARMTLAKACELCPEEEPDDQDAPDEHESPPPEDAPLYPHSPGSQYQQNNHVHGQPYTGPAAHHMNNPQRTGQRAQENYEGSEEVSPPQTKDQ

Setting [9] is: 7.5 or 15 mg/kg daily IP for 8 days.

With `CCCC(NC(=O)/C(C#N)=C/c1nc(Cl)ccc1Cl)c1ccc(OCCN2CCOCC2)cc1` (stereo not shown) [Compound G9, (E)-2-Cyano-3-(3,6-dichloropyridin-2-yl)-N-(1-(4-(2-morpholinoethoxy)phenyl)butyl)acrylamide], the “Usp9xCD inhibitory activity compared to WP1130” value in data set [1] was “superior inhibitors of Usp9xCD”. In addition, in data set [2] (MM1.ST cells, 5 μM), the “caspase activity (PARP cleavage)” value is recorded as “activation of caspase activity”. Further, in data set [2] (MM1.ST or PCL cells, 5 μM), the Mcl-1 level entry is “reduction in Mcl-1”. The “level of Mcl-1” value in data set [2] (Z138 lymphoma cells, 1.25, 2.5 and 5 μM, 4 hours) was “reduce the level of a downstream target of Usp9x”. In addition, the “solubility compared with earlier inhibitor” value in data set [3] is recorded as “improved solubility”. The compound also displayed a solubility in data set [3] (aqueous medium (not specified further)) of 19.8 µM (≈ 9.97 µg/mL). Besides, the “side effects: behavior and mobility” value in data set [4] (7.5 or 15 mg/kg daily IP) is “did not observe changes in behavior or mobility; also recorded: did not have any notable side effects”. Moreover, in data set [4] (setting [9]), the A375 tumor growth entry is given as “suppressed A375 tumor growth; also recorded: completely suppressed tumor growth; also recorded: reduced tumor growth” and the animal weight result is on record as “modest impact on animal weight; also recorded: not significantly different”. In addition, in data set [5], the “apoptotic sensitivity of myeloma tumor cells versus normal CD34+ cells” value was “more apoptotically sensitive to G9 than normal CD34+ cells” and the “effectiveness in inducing apoptosis, tumor (myeloma) versus normal CD34+ cells” value is roughly 10 fold. For the same compound, the “antiviral activity against murine norovirus” value in data set [6] is given as “exhibits antiviral activity against murine norovirus”. Moreover, the “antiviral activity against a variety of viruses” value in data set [7] was “mild to high antiviral activity; also recorded: antiviral activity against Sindbis virus and La Crosse virus”. In addition, in data set [8], the “Mcl-1 protein levels in MM1.S tumors” value is on record as “reduces Mcl-1 protein levels”, the “Usp9x DUB activity in MM1.S tumors” value is “reduces Usp9x DUB activity” and the “apoptosis (PARP cleavage) in MM1.S tumors” value is “activates apoptosis”.
